Results reported in PubChem BioAssay (NCI).
“And” between values parts separate entries of the source, which are not always exact repeats. Equal entries are not always repeated.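 Protocol summary: plate cells (96-well), add compound at 5 concentrations, incubate 48 h, interpolate endpoints linearly. The concentration for 50% growth inhibition is given as GI50. TGI: total growth inhibition.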

Experiments:
Assay in all cases: growth of human tumour cells (NCI), 48 h
A549 NSCLC = system: A549 NSCLC
ACHN renal = system: ACHN renal
COLO 205 colon = system: COLO 205 colon
HCT-116 colon = system: HCT-116 colon
HOP-92 NSCLC = system: HOP-92 NSCLC
KM12 colon = system: KM12 colon
OVCAR-4 ovarian = system: OVCAR-4 ovarian
SK-MEL-5 melanoma = system: SK-MEL-5 melanoma
SN12C renal = system: SN12C renal
UACC-62 melanoma = system: UACC-62 melanoma

SMILES | GI50 (A549 NSCLC) [µM] | TGI (A549 NSCLC) | GI50 (ACHN renal) [µM] | TGI (ACHN renal) [µM] | GI50 (COLO 205 colon) [µM] | TGI (COLO 205 colon) | GI50 (HCT-116 colon) | TGI (HCT-116 colon) | GI50 (HOP-92 NSCLC) | TGI (HOP-92 NSCLC) | GI50 (KM12 colon) | TGI (KM12 colon) | GI50 (OVCAR-4 ovarian) | TGI (OVCAR-4 ovarian) | GI50 (SK-MEL-5 melanoma) | TGI (SK-MEL-5 melanoma) | GI50 (SN12C renal) | TGI (SN12C renal) | GI50 (UACC-62 melanoma) | TGI (UACC-62 melanoma)
COc1ccc2c(O)c(/C=C3\N=Nc4ncccc43)oc2c1C[C@H]1CCNC[C@H]1F | 1.74 | 10.8 µM | 0.27 | 8.18 | 0.24 | 0.806 µM | 0.131 µM | 2.15 µM | 2.39 µM | 11.3 µM | 0.39 µM | 4.79 µM | 0.566 µM | 6.84 µM | 0.942 µM | 10.6 µM | 0.442 µM | 10.6 µM | 0.476 µM | 2.38 µM
O=C(c1ccccn1)c1nc(-c2ccc(Cl)c(Cl)c2)nc2ccc(Cl)cc12 | – | > 100 µM | – | > 100 | – | – | – | 33.4 µM | – | – | – | > 100 µM | – | > 100 µM | – | > 100 µM | – | – | – | > 100 µM
c1ccc(CCCC2Sc3cccc4cccc(c34)S2)cc1 | – | > 100 µM | – | > 100 | – | > 100 µM | – | > 100 µM | – | > 100 µM | – | > 100 µM | – | > 100 µM | – | > 100 µM | – | > 100 µM | – | > 100 µM
CCCCNC(=O)OCC(COc1ccccc1OC)OC(=O)NCCCC (configuration not stated) | – | > 100 µM | – | > 100 | – | > 100 µM | – | > 100 µM | – | – | – | > 100 µM | – | > 100 µM | – | > 100 µM | – | > 100 µM | – | > 100 µM
S=c1nc[nH]c2nc[nH]c12 | 65.9 | > 100 µM and 714 µM and > 750 µM | 4.88 | > 737 | 18.8 | > 100 µM and 546 µM and > 750 µM | 5.4 µM | > 100 µM and 710 µM and > 750 µM | 0.578 µM | 82.2 µM and 285 µM | – | > 100 µM and 716 µM and > 707 µM | 70.8 µM and 61.2 µM | > 100 µM and 618 µM and > 750 µM | 5.4 µM and 46.1 µM | 62.2 µM and 285 µM and > 430 µM | – | > 100 µM and 680 µM and > 750 µM | – | > 100 µM and 512 µM and > 750 µM
Cc1cc(Cl)ccc1NC(=O)C(=O)Cc1ccc([N+](=O)[O-])c([N+](=O)[O-])c1CC(=O)C(=O)Nc1ccc(Cl)cc1C | – | > 100 µM | – | > 100 | – | > 100 µM | – | > 100 µM | – | > 100 µM | – | > 100 µM | – | > 100 µM | – | > 100 µM | – | > 100 µM | – | > 100 µM
COc1ccc2[nH]c3c(C)c4cc[n+](C)cc4c(C)c3c2c1 | – | – | 4.04 | > 85.3 | – | 7.97 µM and 4.89 µM and 3.58 µM | 0.578 µM and 1.14 µM | – | 0.239 µM and 1.55 µM | – | 0.34 µM and 0.817 µM | – | 2.18 µM | 15.9 µM [middle of 4 runs] | 2.07 µM | 7.15 µM [middle of 4 runs] | 0.0483 µM and 0.0691 µM | 797 nM [middle of 4 runs] | 1.28 µM and 7.39 µM | –
C/C(=C1/N=C(c2ccccc2)OC1=O)c1ccc(C)cc1 | – | > 100 µM | – | > 100 | – | > 100 µM | – | > 100 µM | – | > 100 µM | – | > 100 µM | – | > 100 µM | – | > 100 µM | – | > 100 µM | – | > 100 µM
COc1cc([N+](=O)[O-])c(S(=O)(=O)O)cc1N | – | > 100 µM | – | > 100 | – | > 100 µM | – | > 100 µM | – | – | – | > 100 µM | – | > 100 µM | – | > 100 µM | – | > 100 µM | – | > 100 µM
c1ccc(CCCNc2nnnc3ccccc23)cc1 | – | > 100 µM | – | > 100 | – | > 100 µM | – | > 100 µM | – | > 100 µM | – | > 100 µM | – | > 100 µM | – | > 100 µM | – | > 100 µM | – | > 100 µM
COc1cc2c(cc1OC)C(=O)Cc1ccc3c(c1CNCC2)OCO3 | – | > 100 µM | – | > 100 | – | > 100 µM | – | > 100 µM | – | – | – | > 100 µM | – | > 100 µM | – | > 100 µM | – | > 100 µM | – | > 100 µM
Fc1c[c-]c(-c2ccccn2)c(F)c1.[CH3-].[Pt+2].c1ccc([PH+](c2ccccc2)c2ccccn2)cc1 | 2.66 | > 100 µM | 1.2 | 2.49 | 1.77 | 5.72 µM | 1.3 µM | 2.8 µM | 1.18 µM | 2.68 µM | 2.53 µM | 6.49 µM | 1.57 µM | 7.06 µM | 1.6 µM | 3 µM | 1.51 µM | 4.24 µM | – | –
C=CC[N+]1(CCO)CCN=C1CCCCCCCCCCCCC (configuration not stated) | 1.83 | 3.3 µM | – | – | 1.7 | 3.08 µM | 1.4 µM | 2.69 µM | – | – | – | – | 1.67 µM | 3.45 µM | 1.6 µM | 2.95 µM | 1.46 µM | 2.85 µM | 1.82 µM | 3.52 µM
Cc1nc2nn(Cc3ccccc3)cc2c(=O)o1 | – | > 100 µM | – | > 100 | – | > 100 µM | – | > 100 µM | – | – | – | > 100 µM | – | – | – | > 100 µM | – | > 100 µM | – | > 100 µM
Fc1ccc2c(c1)SC1Oc3ccccc3-c3c1c-2nn3-c1ccccc1 (configuration not stated) | – | > 100 µM | – | > 100 | – | > 100 µM | – | > 100 µM | – | > 100 µM | – | > 100 µM | – | – | – | – | – | – | – | –
Cc1cc(S(N)(=O)=O)c(S/C(=N\Nc2ccc([N+](=O)[O-])cc2)c2ccc(O)cc2)cc1Cl | 4.06 | 29.6 µM | 3.09 | 12.9 | 4.21 | 17.6 µM | 2.89 µM | 10.6 µM | – | – | 1.96 µM | 4.14 µM | 3.43 µM | 7.94 µM | 1.86 µM | 3.38 µM | 2.38 µM | 5.29 µM | 1.79 µM | 3.84 µM
Clc1ccccc1C1N2CCCCC2[C@@H]2c3[nH]c4ccccc4c3CCN12 (some centres not stated) | – | – | – | 45.8 | – | 37.4 µM | – | 32.6 µM | – | > 100 µM | – | – | – | 44.4 µM | – | – | – | 30.9 µM | – | 30.2 µM
COc1ccc(C(=O)Nc2ccc(S(=O)(=O)NCC(=O)O)cc2)cc1 | – | > 100 µM | – | > 100 | – | > 100 µM | – | – | – | > 100 µM | – | > 100 µM | – | > 100 µM | – | > 100 µM | – | > 100 µM | – | > 100 µM
CCCCCCCCCCCCC/C=C1\C[C@H](O)COC1=O | – | 38.7 µM | – | 29.4 | – | – | – | 31.2 µM | – | 24.7 µM | – | 30.1 µM | – | 32.7 µM | – | 26.6 µM | – | 28.8 µM | – | 26.8 µM
O=c1c2cc(Br)ccc2nc(-c2ccccc2)n1NCC1(O)OCC(O)C(O)C1O (configuration not stated) | – | > 100 µM | – | > 100 | – | > 100 µM | – | > 100 µM | – | – | – | > 100 µM | – | > 100 µM | – | > 100 µM | – | > 100 µM | – | > 100 µM
